Data taken from patent US9914735B2, “Heteroaryl Syk inhibitors” (Boehringer Ingelheim International GmbH, priority 2014, dated 2018).
Read-outs that look alike come from different tables or passages of the source.

Legend:
[1] = target: Recombinant human Aurora B (amino acids 1-344) (Homo sapiens (Human), UniProt Q96GD4); experiment: Aurora B kinase test (ADP Glo luminescence); format: biochemical
Description: The activity of the Aurora B kinase protein was determined using the ADP Glo® Luminescence Kinase test (Promega; V9103X).
Serial Dilution is done in 1:10 steps in 100% DMSO.
Then 20 μl Kinase detection mix (Detection Buffer #V913B Promega; Kinase Detection Substrate #V914B Promega) were added and incubated for 40 minutes at room temperature.
(§1) The output file of the reader is a csv file that contains the well number and measured RLU. For data evaluation and calculation, the measurement of the negative control was set as 0% ctrl and the measurement of the positive control was set as 100% ctrl. Based on this values the % value for the measurement of each substance concentration was calculated using an Assay Explorer software (Accelrys). Normally, the % ctrl values calculated are between 0% and 100% values but may also occur outside these limits in individual cases based on variability or compound characteristics. The IC50 values were calculated from the % ctrl values using Assay Explorer software. Calculation: [y=(a−d)/(1+(x/c)^b)+d], a=low value, d=high value; x=conc M; c=IC50 M; b=hill; y=% ctrl.

[2] = Human liver microsomal stability test; format: in vitro ADME; details: for microsomal stability Cl [% Qh]: human liver microsomes, Qh = liver blood flow
Description: The metabolic degradation for a specific SYK-inhibitor is performed at 37° C. with pooled human liver microsomes (human liver microsomes are commercially available as “BD UltraPool™” by Corning Life Sciences, Fogostraat 12, 1060 LJ Amsterdam, The Netherlands). The final incubation volume of 100 μl per time point contains TRIS buffer pH 7.6 at RT (0.1 M), magnesium chloride (5 mM), microsomal protein (1 mg/ml) and the test compound at a final concentration of 1 μM.
Following a short preincubation period at 37° C., the reaction is initiated by addition of beta-nicotinamide adenine dinucleotide phosphate in its reduced form (NADPH, 1 mM) and terminated by transfering an aliquot into solvent after different time points. Additionally, the NADPH-independent degradation is monitored in incubations without NADPH, terminated at the last time point.
The quenched (terminated) incubations are then pelleted by centrifugation (10000 g, 5 min).
An aliquot of the supernatant is assayed by LC-MS/MS for the remaining amount of parent compound. The half-life (t1/2 INVITRO) is determined by the slope of the semilogarithmic plot of the concentration-time profile.
The intrinsic clearance (CL_[…]) is calculated by considering the amount of protein in the incubation: CL_[…][μl/min/mg protein]=(Ln 2/(t1/2 INVITRO[min]*protein content[mg/ml]))*1000
The protein content [mg/ml] was determined with the “Bicinchoninic Acid Kit” of Sigma Aldrich (commercially available).
The upscaled intrinsic Clearance (CL_UP_INT) is calculated by considering the liver weight [g liver/kg body weight] and the microsomal recovery [mg protein/g liver]: CL_UP_INT[ml/min/kg]=0.001*CL_[…]*liver weight*microsomal recovery • with microsomal recovery=45 mg protein/g liver • with liver weight=25.7 g liver/kg body weight
The percent hepatic blood flow (% Qh) is finally calculated by considering the human liver blood flow Q [ml/min/kg]: % Qh[%]=((Q*CL_UP_INT)/(Q+CL_UP_INT)/Q)*100 • with liver blood flow (Q)=20.7 ml/min/kg.

FLT3 = FLT3 (Homo sapiens (Human), UniProt P36888); experiment: FLT3 kinase test (Z'-LYTE); format: biochemical
Chain of FLT3 (P36888 27-993): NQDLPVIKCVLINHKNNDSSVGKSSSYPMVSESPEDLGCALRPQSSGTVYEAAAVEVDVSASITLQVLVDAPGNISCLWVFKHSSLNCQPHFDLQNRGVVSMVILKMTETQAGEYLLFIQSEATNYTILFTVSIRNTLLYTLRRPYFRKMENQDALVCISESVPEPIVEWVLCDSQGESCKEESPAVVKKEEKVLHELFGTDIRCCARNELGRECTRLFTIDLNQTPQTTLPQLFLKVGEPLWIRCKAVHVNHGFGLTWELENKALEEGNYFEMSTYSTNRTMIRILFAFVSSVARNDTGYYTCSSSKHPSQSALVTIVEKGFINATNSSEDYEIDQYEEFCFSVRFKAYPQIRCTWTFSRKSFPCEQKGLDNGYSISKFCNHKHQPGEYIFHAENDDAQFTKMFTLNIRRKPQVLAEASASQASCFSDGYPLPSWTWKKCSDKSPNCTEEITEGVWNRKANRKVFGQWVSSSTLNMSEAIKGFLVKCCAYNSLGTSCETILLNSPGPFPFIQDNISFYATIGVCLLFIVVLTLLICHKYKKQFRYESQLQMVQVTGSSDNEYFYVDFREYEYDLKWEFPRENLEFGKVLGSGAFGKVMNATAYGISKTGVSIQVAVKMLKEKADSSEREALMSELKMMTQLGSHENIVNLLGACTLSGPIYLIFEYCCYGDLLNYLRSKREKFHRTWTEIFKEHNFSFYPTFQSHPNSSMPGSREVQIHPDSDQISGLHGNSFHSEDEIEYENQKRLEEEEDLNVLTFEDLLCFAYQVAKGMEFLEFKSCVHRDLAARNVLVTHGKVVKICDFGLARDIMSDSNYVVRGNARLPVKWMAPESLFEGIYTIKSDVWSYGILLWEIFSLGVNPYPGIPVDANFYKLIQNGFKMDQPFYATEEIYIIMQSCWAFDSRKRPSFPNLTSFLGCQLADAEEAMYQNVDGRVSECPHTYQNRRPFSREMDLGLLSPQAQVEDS
Description: The activity of FLT3 is measured using the Z′-LYTETM assay technology from Invitrogen (#PV3191)
The reaction is started by addition of 2.5 μl of the 4×ATP solution.
Positive controls are reaction mixtures containing no test compound; negative controls (blanks) are reaction mixtures containing no kinase. As a further control, the phosphopeptide solution is added to wells without kinase (=100% phosphorylation control).
The reaction is performed for 1 h at room temperature before 5 μl of the development solution is added. After a further incubation for 1 h at room temperature 5 μl of the stop reagent is added.
The output text file is evaluated in an “MS-Excel—VB-Makro” and “GraphPadPrism” (Version 5) (GraphPad Software Inc.) is used to calculate the results. Data for the inhibition of FLT3 are reported in M. data for the inhibition of the protease are reported in % CTL.

[3] = target: Recombinant human Syk (amino acids 342-635), GST-Syk kinase fusion protein (Homo sapiens (Human), UniProt P43405); experiment: Syk kinase test (Kinase Glo luminescence); format: biochemical; details: Table 1; read-out: SYK-inhibition IC50-value
Description: as §1, with “measured relative light units (RLU).” for “measured RLU.”, “as 100%” for “as 0%”, “as 0%” for “as 100%”, “software. Calculation:[y=(a−d)/(1+(x/c)^b)+d]” for “software. Calculation: [y=(a−d)/(1+(x/c)^b)+d],”

[4] = read-out: IC50-values with regard to AURB
[5] = Table 1, read-out: AURB-inhibition IC50-value
[6] = Table 1, read-out: FLT3-inhibition IC50-value

Chain of Recombinant human Aurora B (amino acids 1-344) (Q96GD4 whole entry, the tested form may be a part): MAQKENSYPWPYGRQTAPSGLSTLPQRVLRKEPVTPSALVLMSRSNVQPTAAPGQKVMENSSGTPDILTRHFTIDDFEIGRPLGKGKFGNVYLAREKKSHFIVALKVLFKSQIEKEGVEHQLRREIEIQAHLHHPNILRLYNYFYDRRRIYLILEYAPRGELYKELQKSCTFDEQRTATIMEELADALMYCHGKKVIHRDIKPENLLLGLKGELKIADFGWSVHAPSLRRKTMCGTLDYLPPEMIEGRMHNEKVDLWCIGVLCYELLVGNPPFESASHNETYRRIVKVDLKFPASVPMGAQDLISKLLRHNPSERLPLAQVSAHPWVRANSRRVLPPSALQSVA

Compound	IC50 [3]	IC50 [1, 5]	IC50 (FLT3; [6])	also measured
COc1cc(-c2cc(O[C@H](C)[C@H]3CNC(=O)C3)c3cccnc3c2)cc(OC)c1OC [example 2 of WO2013/014060, reference compound]	–	–	–	IC50 [1, 4]: 16.9 µM; human liver microsomal stability CI [2]: 81 % Qh
CC(C)n1cc(-c2cc(O[C@H](C)[C@H]3CNC(=O)C3)c3cccnc3c2)cn1 [115 of WO 2013/014060]	–	–	–	microsomal stability Cl [% Qh] [2]: <23 % Qh
C[C@@H](Oc1nc(-c2ccc(N3CCOCC3)nc2)cc2ncccc12)[C@H]1CNC(=O)C1 [45 of WO 2011/092128]	–	–	–	microsomal stability Cl [% Qh] [2]: 53 % Qh
COc1cc(-c2cc3ncccc3c(O[C@H](C)[C@H]3CNC(=O)C3)n2)cc(OC)c1Cl [example 8 of WO 2011/092128, reference compound]	–	–	–	IC50 [1, 4]: > 50 µM; human liver microsomal stability CI [2]: 77 % Qh
Cc1c(-c2cc(O[C@H](C)[C@H]3CNC(=O)C3)c3cccnc3c2)cnn1C [112 of WO 2013/014060]	–	–	–	microsomal stability Cl [% Qh] [2]: <23 % Qh
CCCn1cc(-c2cc(O[C@H](C)[C@H]3CNC(=O)C3)c3cccnc3c2)cn1 [114 of WO 2013/014060]	–	–	–	microsomal stability Cl [% Qh] [2]: 26 % Qh
C[C@@H](Oc1cc(-c2ccc(CN3CCOCC3)cc2)cc2ncccc12)[C@H]1CNC(=O)C1 [43 of WO 2013/014060]	–	–	–	IC50 ([1]; read-out: IC50 in μM (AURB-Inhibition)): 0.144 µM; IC50 (FLT3; read-out: IC50 in μM (FLT3-Inhibition)): 0.157 µM; microsomal stability Cl [% Qh] [2]: <23 % Qh
C[C@@H](Oc1nc(-c2ccc3c(c2)CCN(C)CC3)cc2nn(C)cc12)[C@H]1CNC(=O)C1 [Example 55, (4R)-4-[(1R)-1-[2-methyl-6-(3-methyl-1,2,4,5-tetrahydro-3-benzazepin-7-yl)pyrazolo-[4,3-c]pyridin-4-yl]oxyethyl]-pyrrolidin-2-one]	0.0436 µM	> 50 µM	3.07 µM	–
C[C@@H](Oc1cc(-c2ccc(N3CCCS3(=O)=O)cc2)cc2nn(C)cc12)[C@H]1CNC(=O)C1 [Example 33]	0.0245 µM	> 50 µM	3.88 µM	–
C[C@@H](Oc1cc(-c2n[nH]c3ccc(C#N)cc23)cc2nn(C)cc12)[C@H]1CNC(=O)C1 [Example 16, 3-[2-methyl-4-[(1R)-1-[(3R)-5-oxopyrrolidin-3-yl]-ethoxy]indazol-6-yl]-1H-indazole-5-carbonitrile]	0.0065 µM	> 50 µM	10.6 µM	–
C[C@@H](Oc1cc(-c2cc3cccc(Cl)c3[nH]2)cc2nn(C)cc12)[C@H]1CNC(=O)C1 [Example 48, (4R)-4-[(1R)-1-[6-(7-chloro-1H-indol-2-yl)-2-methyl-indazol-4-yl]oxyethyl]-pyrrolidin-2-one]	0.0556 µM	> 50 µM	16.9 µM	–
C[C@@H](Oc1nc(-c2cc3nn(C)cc3c(O[C@H](C)[C@H]3CNC(=O)C3)n2)cc2nn(C)cc12)[C@@H]1CNC(=O)C1 [Example 11, (4S)-4-[(1R)-1-[2-methyl-6-[2-methyl-4-[(1R)-1-[(3R)-5-oxopyrrolidin-3-yl]ethoxy]-pyrazolo[4,3-c]pyridin-6-yl]pyrazolo[4,3-c]pyridin-4-yl]oxyethyl]pyrrolidin-2-one]	0.935 µM	> 50 µM	37.4 µM	–
C[C@@H](Oc1nc(-c2ccc(C3CC3)nc2)cc2nn(C)cc12)[C@H]1CNC(=O)C1 [Example 50, (4R)-4-[(1R)-1-[6-(6-Cyclopropyl-3-pyridyl)-2-methyl-pyrazolo[4,3-c]pyridine-4-yl]oxyethyl]pyrrolidin-2-one]	0.0554 µM	48 µM	9.52 µM	–
C[C@@H](Oc1nc(-c2cnn(C3CCNCC3)c2)cc2nn(C)cc12)[C@H]1CNC(=O)C1 [Example 9, (4R)-4-[(1R)-1-[2-Methyl-6-[1-(4-piperidyl)pyrazol-4-yl]pyrazolo[4,3-c]pyridin-4-yl]oxyethyl]pyrrolidin-2-one]	0.0424 µM	> 50 µM	3.67 µM	–
C[C@@H](Oc1nc(-c2cc3cccc(Cl)c3[nH]2)cc2nn(C)cc12)[C@H]1CNC(=O)C1 [Example 77, (4R)-4-[(1R)-1-[6-(7-chloro-1H-indol-2-yl)-2-methyl-pyrazolo[4,3-c]pyridin-4-yl]oxyethyl]pyrrolidin-2-on]	0.0498 µM	43.4 µM	3.75 µM	–
C[C@@H](Oc1nc(-c2cnn(C3CCC(F)(F)CC3)c2)cc2nn(C)cc12)[C@H]1CNC(=O)C1 [Example 10, (4R)-4-[(1R)-1-[6-[1-(4,4-Difluorocyclohexyl)pyrazol-4-yl]-2-methyl-pyrazolo[4,3-c]pyridin-4-yl]oxyethyl]pyrrolidin-2-one]	0.0218 µM	36 µM	8.03 µM	–
C[C@@H](Oc1nc(-c2cnn([C@H]3CCOC3)c2)cc2nn(C)cc12)[C@H]1CNC(=O)C1 [Example 70, (4R)-4-[(1R)-1-[2-methyl-6-[1-[(3S)-tetrahydrofuran-3-yl]pyrazol-4-yl]pyrazolo[4,3-c]pyridin-4-yl]oxyethyl]-pyrrolidin-2-one]	0.0345 µM	> 50 µM	17 µM	–
C[C@@H](Oc1nc(-c2cnn(C3CC3)c2)cc2nn(C)cc12)[C@H]1CNC(=O)C1 [Example 78, (4R)-4-[(1R)-1-[6-(1-cyclopropylpyrazol-4-yl)-2-methyl-pyrazolo[4,3-c]pyridin-4-yl]oxyethyl]pyrrolidin-2-one]	0.0359 µM	> 50 µM	22 µM	–
Cc1cc(-c2cc3nn(C)cc3c(O[C@H](C)[C@H]3CNC(=O)C3)n2)ccc1N1CCCS1(=O)=O [Example 71, (4R)-4-[(1R)-1-[6-[4-(1,1-dioxo-1,2-thiazolidin-2-yl)-3-methyl-phenyl]-2-methyl-pyrazolo[4,3-c]pyridin-4-yl]oxyethyl]pyrrolidin-2-one]	0.015 µM	> 50 µM	7.65 µM	–
Cc1nccn1Cc1ccc(-c2cc3nn(C)cc3c(O[C@H](C)[C@H]3CNC(=O)C3)n2)cc1 [Example 17]	0.0316 µM	> 50 µM	1.61 µM	–
C[C@@H](Oc1cc(-c2cnn(C(F)F)c2)cc2nn(C)cc12)[C@H]1CNC(=O)C1 [Example 40, (4R)-4-[(1R)-1-[6-[1-(difluoromethyl)pyrazol-4-yl]-2-methyl-indazol-4-yl]oxyethyl]pyrrolidin-2-one]	0.0343 µM	31.4 µM	8.95 µM	–
C[C@@H](Oc1cc(-c2cnc3ccc(C#N)cn23)cc2nn(C)cc12)[C@H]1CNC(=O)C1 [Example 43, 3-[2-methyl-4-[(1R)-1-[(3R)-5-oxopyrrolidin-3-yl]ethoxy]indazol-6-yl]imidazo[1,2-a]pyridine-6-carbonitrile]	0.0649 µM	> 50 µM	15.1 µM	–
